Data set [1] has as its system Hepatitis C virus. Kind of data set: Antiviral activity against HCV1a by replicon assay. The format is functional, organism-based, Hepacivirus hominis. Particulars: subtype 1a. (In general: In antiviral work, replicon cells carry a viral genome segment that copies itself.)
Data set [2] can be described thus: Ratio of drug level in liver to plasma in rat at 10 mg/kg, po after 6 hrs. The format is ADME, organism-based.
A short description of data set [3]: Oral bioavailability in rat at 10 mg/kg. The data set is classed as ADME, organism-based. Particulars: in vivo.
Data set [4] has as its system Hepatitis C virus. The data set is described as follows: Antiviral activity against HCV1b by replicon assay in presence of 40% human serum. The following applies: genotype 1b. The data set is classed as functional, organism-based, Hepacivirus hominis.
A short description of data set [5]: AUC (0 to 24 hrs) in rat at 5 mg/kg, iv. On the set-up: dose 5 mg/kg, time < 24 hr, route intravenous. The data set is classed as ADME, organism-based. Particulars: in vivo.
Data set [6] is described as follows: AUC (0 to 24 hrs) in rat at 10 mg/kg, po. Particulars: in vivo. On the set-up: time < 24 hr, dose 10 mg/kg, route oral. The data set is classed as ADME, organism-based.
Data set [7] in a line: AUC (0 to 24 hrs) in dog at 1 mg/kg, iv. The data set is classed as ADME, organism-based, Canis lupus familiaris. The arrangement: dose 1 mg/kg, time < 24 hr, route intravenous. The following applies: in vivo.
Data set [8] in a line: AUC (0 to 24 hrs) in dog at 3 mg/kg, po. The format is ADME, organism-based, Canis lupus familiaris. The arrangement: time < 24 hr, dose 3 mg/kg, route oral. The following applies: in vivo.
The nature of data set [9]: AUC (0 to 24 hrs) in cynomolgus monkey at 1 mg/kg, iv. The format is ADME, organism-based, Macaca fascicularis. On the set-up: time < 24 hr, dose 1 mg/kg, route intravenous. Particulars: in vivo.
Data set [10] in a line: AUC (0 to 24 hrs) in cynomolgus monkey at 3 mg/kg, po. The data set is classed as ADME, organism-based, Macaca fascicularis. The arrangement: dose 3 mg/kg, time < 24 hr, route oral. Particulars: in vivo.
A short description of data set [11]: Oral bioavailability in dog at 3 mg/kg. The format is ADME, organism-based, Canis lupus familiaris. Particulars: in vivo.
A short description of data set [12]: Oral bioavailability in cynomolgus monkey at 3 mg/kg. Particulars: in vivo. The format is ADME, organism-based, Macaca fascicularis.
Data set [13] is described as follows: Ratio of drug level in liver to plasma in rat at 10 mg/kg, po after 48 hrs. The data set is classed as ADME, organism-based.
Data set [14] can be described thus: Solubility in mid-range pH solutions. The data set is classed as physicochemical.

The values that follow come from ChEMBL document CHEMBL3758092, “Discovery and preclinical evaluation of potent, orally bioavailable, metabolically stable cyclopropylindolobenzazepine acylsulfonamides as thumb site 1 inhibitors of the hepatitis c virus NS5B RNA-dependent, RNA polymerase” (Bioorg Med Chem Lett, 2016).

For orientation: EC50 means the midpoint of the concentration-response curve. By Kp is commonly meant the ratio of the level in a tissue or fluid to that in plasma or blood. What is called bioavailability is the share of a dose that reaches the circulation, judged against a reference dose that is usually intravenous. A word on the AUC(0-t): it is the area under the concentration-time curve up to a stated or last time point. Consider `COc1ccc2c(c1)[C@@H]1C[C@]1(C(=O)N1C3CCC1CN(C)C3)Cn1c-2c(C2CCCCC2)c2ccc(C(=O)NS(=O)(=O)C(C)C)cc21`, for which the EC50 is 7 nM with Hepatitis C virus [1] and 20 nM in the data set with Hepatitis C virus [4]. In addition, the Kp at 6 h in data set [2] amounted to 20. For the same molecule, the bioavailability amounted to 65% in data set [3], 100% in [11] and 25% in [12]. Further, the AUC(0-t) at 24 h in data set [5] came to 18 µM·h; in [6], 16 µM·h; in data set [7] it was 36 µM·h; in [8], 124 µM·h; in data set [9], 7 µM·h; in data set [10], 5.4 µM·h. Moreover, in [13], the Kp at 48 h is 11. In data set [14], the solubility result was “soluble”.
